Assay results from patent US12698281B2, “Thiazole derivatives for therapeutic use” (NIMML Institute, priority 2022, dated 2026).

Experiments:
CD4+ T cells = assay: CD4+ T cell culture, CD4+ IFNγ+ cells by flow cytometry; type: cell-based, mice; conditions: 24 hours, PMA and ionomycin final 6 hours, relative to vehicle treated wells
Description: CD4+ T cells are central to the generation of inflammation in a variety of conductions. In addition, CD4+ T cells are primary responders to the IL-18 cytokine. As such, CD4+ T cells were cultured in vitro in the presence of selected compounds to test for pharmacological activity.
CD4+ T cell culture. Spleens were excised from mice and crushed between frosted microscope slides. Cellular suspension was filtered, centrifuged and exposed to hypotonic lysis to remove red blood cells. CD4+ T cells were enriched by magnetic sorting. Cells were re-suspended in IMDM and cultured in CD3- and CD28-coated round bottom wells. Cells were treated with indicated compounds at 10 and 100 nM or vehicle for 24 hours. During the final 6 hours, cells were stimulated with phorbol myristate acetate and ionomycin. Cells were then collected and stained with antibodies to detect CD45+ CD4+ IFNγ+ cells by flow cytometry. Data was acquired using a FACS Celesta flow cytometer with FACSDiva software.

DSS colitis model = assay: DSS colitis model; type: in vivo, mice; conditions: oral, 20 mg/kg once daily, DSS in drinking water for seven days; for proportion of CD4+ IFNγ+ cells in the colonic lamina propria: flow cytometry; for severity of disease by macroscopic scoring of the colon: score 0 to 4, relative to vehicle group
From the text: Inflammation of the gastrointestinal tract can be caused by numerous factors including food antigens, infectious agents, autoimmunity, or radiation. The dextran sulfate sodium (DSS) model provides a model system where the epithelial barrier is disrupted in the distal intestine allowing for translocation of bacteria and generation of immune responses. DSS model. Mice were given DSS in drinking water for seven days. At project initiation, mice were approximately 8 weeks of age and began dosing 24 hours after being placed on DSS water. Treatments were prepared within a 0.5% methylcellulose solution. The dosage used was 20 mg/kg delivered once daily. At conclusion, colons were scored macroscopically for presence of lesions, blood, stool consistency, mucosal thickening, friability and length on a summarized score from 0 to 4. Flow cytometry. Colons were collected into RPMI/FBS buffer containing collagenase and DNase for digestion. Tissues were digested for 60 minutes under stifling at 37° C. Resultant cellular suspensions were filtered through 100 um strainers, centrifuged and washed in fresh RPMI. Following filtration, immune cells were purified by Percoll gradient of the cell-containing 40% Percoll overlayed onto 70% Percoll solution. After centrifugation, interphase was collected and washed to obtain enriched colonic lamina propria cell fractions. Cells were labeled with mixtures of extracellular and intracellular antibodies to quantify the presence of CD45+ CD3+ CD4+ CD8− IFNγ+ cells. Data was acquired using a FACS Celesta flow cytometer with FACSDiva software.

## O=C1C=C(C(=O)N2CCO[C@H](C(=O)c3ncc(-c4ccccc4F)s3)C2)NN2CC=CC12 (stereo partly drawn) [Compound 69, 2-((S)-2-(5-(2-fluorophenyl)thiazole-2-carbonyl)morpholine-4-carbonyl)-4a,7-dihydropyrrolo[1,2-b]pyridazin-4(1H)-one]
CD4+ T cells; 100 nM
  proportion of CD4+ IFNγ+ cells: significantly reduced

## O=C(c1ncc(-c2ncccc2F)s1)[C@@H]1CN(C(=O)c2cnnc3ccccc23)CCO1 [Compound 37, cinnolin-4-yl(2-(S)-(5-(3-fluoropyridin-2-yl)thiazol-2-carbonyl)-morpholin-4-yl)methanone]
CD4+ T cells; 100 nM
  proportion of CD4+ IFNγ+ cells: significantly reduced
DSS colitis model
  proportion of CD4+ IFNγ+ cells in the colonic lamina propria: reducing
  severity of disease by macroscopic scoring of the colon: reduced

## O=C(c1ncc(-c2ncccc2F)s1)[C@@H]1CN(C(=O)c2cc(F)ccn2)CCO1 [Compound 40, 4-fluoro-pyridin-2-yl(2-(S)-(5-(3-fluoropyridin-2-yl)thiazol-2-carbonyl)-morpholin-4-yl)methanone]
CD4+ T cells; 10 nM
  proportion of CD4+ IFNγ+ cells: significantly reduced
CD4+ T cells; 100 nM
  proportion of CD4+ IFNγ+ cells: significantly reduced
DSS colitis model
  proportion of CD4+ IFNγ+ cells in the colonic lamina propria: reducing
  severity of disease by macroscopic scoring of the colon: reduced

## O=C(c1ncc(-c2ncccc2F)s1)[C@@H]1CN(C(=O)c2cc(F)c(F)cn2)CCO1 [Compound 34, 4,5-difluoro-pyridin-2-yl(2-(S)-(5-(3-fluoropyridin-2-yl)thiazol-2-carbonyl)-morpholin-4-yl)methanone]
CD4+ T cells; 10 nM
  proportion of CD4+ IFNγ+ cells: significantly reduced
CD4+ T cells; 100 nM
  proportion of CD4+ IFNγ+ cells: significantly reduced

## COc1cc(-c2cnc(C(=O)C3CCN(C(=O)c4cnnc5ccccc45)CC3)s2)ccc1O [Compound 11, cinnolin-4-yl(4-(5-(4-hydroxy-3-methoxyphenyl)thiazole-2-carbonyl)-piperidin-1-yl)methanone]
CD4+ T cells; 10 nM
  proportion of CD4+ IFNγ+ cells: significantly reduced
CD4+ T cells; 100 nM
  proportion of CD4+ IFNγ+ cells: significantly reduced
DSS colitis model
  proportion of CD4+ IFNγ+ cells in the colonic lamina propria: reducing
  severity of disease by macroscopic scoring of the colon: reduced
